Consider one compound from patent US9619875B2, “Contrast reagent leakage correction in dynamic susceptibility contrast magnetic resonance imaging” (OREGON HEALTH & SCIENCE UNIVERSITY, priority 2014, dated 2017).

The data set in a line: DSC MRI with gadoteridol (day 1) and ferumoxytol (day 2) in subjects with Glioblastoma multiforme. In kind it is in vivo. From the text: In this example, 17 subjects with Glioblastoma multiforme (GBM) were prospectively studied on institutional review board approved protocols. Informed written consent was obtained from each subject. Subjects underwent MRI sessions consisting of two consecutive days of MRI scans. On the first day, pre- and post-contrast T1-weighted images and DSC-MRI were acquired using gadoteridol gadolinium (III) chelate (ProHance, Bracco Diagnostic Inc., Princeton, N.J.). On the following day, the same MRI sequences were acquired using ferumoxytol (provided by AMAG Pharmaceuticals, Inc., Cambridge, Mass.). […]
All Gd and Fe DSC data were first motion corrected within each dynamic series and then between the series using FMRIB's Linear Image Registration Tool (FLIRT) within FM RIB Software Library (FSL). […] The Gd CR extravasating rate constant was calculated either with the Equation 1 fitting approach to obtain K2, or the KL constant defined as the slope of the linear portion of the graphed points using Equation 2. In this example, linear regression was performed starting at 40 seconds post CR injection to ensure minimal influence of CR transient period (period (i) shown in FIGS. 2E and 2F described below) on KL quantification. […]

In the case of `CC(O)CN1CCN(CC(=O)[O-])CCN(CC(=O)[O-])CCN(CC(=O)[O-])CC1.[Gd+3]` (centres unmarked) [gadoteridol, gadoteridol gadolinium (III) chelate], under “17 GBM subjects, gadoteridol 0.1 mmol/kg i.v., ferumoxytol 1 mg/kg, 2 mg/kg or 75 mg i.v.”, the “complications during the MR examinations” value is recorded as “No subject had any complications”. Besides, the “pixels with appreciable linearity departure (period iii, intravasation)” value (Equation 2 linearization, data up to 70 s post CR injection) is given as below 0.1%.
